According to US6071884A, “Pharmaceutical compositions and therapeutic methods” (Kirin Beer Kabushiki Kaisha, priority 1992, dated 2000):

Legend:
white blood cells = assay: White blood cell count in monkey; format: in vivo, croo monkey; conditions: for Number of White Blood Cells: mean ± SD
Protocol: (§1) Pharmacological Test 7: Blood-Platelet-Increasing Effect upon Monkey
(§2) Six croo monkeys (female, 3 to 5 years old, 2.3 to 2.8 kg), 2 monkeys in one group were used. A vehicle, 0.1 mg/body of the compound 33 or 1 mg/body of the compound 33 was intravenously administered to the monkeys. 6 and 9 days after the administration, blood was collected by using a blood-collecting tube EDTA-2K, and the numbers of blood platelets, white blood cells and red blood cells contained in the peripheral blood were measured by using an E-2500/cs. The results are shown in Tables 7-1, 7-2 and 7-3, respectively.

blood platelets = assay: Blood-platelet-increasing effect upon monkey; format: in vivo, croo monkey; conditions: for Number of Blood Platelets: mean ± SD
Protocol: Subsequently, in order to examine the effect on Primates, the effect of Compound 33 was examined as a representative of the compounds represented by the formula (A), by using normal croo monkeys.
as §1, §2

[1] = test system: marrow cells (mononuclear cell fraction); assay: Effect on marrow cell of monkey (3H-TdR uptake); format: cell-based, croo monkey; conditions: Primates, 96 h, percentage of control, 4 days
Protocol: Pharmacological Test 2: Effect on Marrow Cell of Monkey
Marrow cells were prepared from the humerus of a croo monkey, and an MNF obtained by fractionation using a Lymphoprep (Nycomed Pharma AS, Oslo, Norway) was used in the following experiment.
The MNF was suspended in an RPMI 1640 medium added with 10% blood plasma of a croo monkey to make its concentration 1×10^6 cells/ml.
10 μl/well of a sample with a predetermined concentration and 100 μl/well of the above-prepared MNF were placed on a round-bottomed 96 well plate, and incubated under the conditions of 37° C. and 5% CO2 for 4 days. Thereafter, 0.5 μCi/well of ^3 H-TdR was added. After 6 hours, the cells were harvested, and the amount of the ^3 H-TdR taken in the nuclei was measured by a liquid scintillation counter.

red blood cells = assay: Red blood cell count in monkey; format: in vivo, croo monkey; conditions: for Number of Red Blood Cells: mean ± SD
Protocol: as §1, §2

CCCCCCCCCCCCCCCCCCCCCCCCCC(=O)N[C@@H](CO[C@H]1O[C@H](CO)[C@H](O)[C@H](O)[C@H]1O)[C@H](O)[C@H](O)CCCCCCCCCCCCCC [Compound 33, (2S,3S,4R)-1-(α-D-galactopyranosyloxy)-2-hexacosanoylamino-3,4-octadecanediol]
Number of White Blood Cells (white blood cells; 0.1 mg/body i.v., after 6 days, vehicle 91 ± 31): 156 ± 1 × 10^2 /μl
Number of White Blood Cells (white blood cells; 0.1 mg/body i.v., after 9 days, vehicle 94 ± 57): 105 ± 15 × 10^2 /μl
white-blood-cell-increasing effect (in words) (white blood cells; 0.1 mg/body, 6 days after administration, equal to 1 mg/body): remarkable white-blood-cell-increasing effect
Number of White Blood Cells (white blood cells; 1 mg/body i.v., after 6 days, vehicle 91 ± 31): 150 ± 37 × 10^2 /μl
Number of White Blood Cells (white blood cells; 1 mg/body i.v., after 9 days, vehicle 94 ± 57): 169 ± 21 × 10^2 /μl
Number of Blood Platelets (blood platelets; 0.1 mg/body i.v., after 6 days, vehicle 37.8 ± 8.5): 56.4 ± 5.2 × 10^4 /μl
Number of Blood Platelets (blood platelets; 0.1 mg/body i.v., after 9 days, vehicle 37.4 ± 12.4): 52.4 ± 9.0 × 10^4 /μl
blood-platelet-increasing effect (in words) (blood platelets; 0.1 mg/body, almost equal to 1 mg/body): remarkable blood-platelet-increasing effect
Number of Blood Platelets (blood platelets; 1 mg/body i.v., after 6 days, vehicle 37.8 ± 8.5): 62.1 ± 15.9 × 10^4 /μl
Number of Blood Platelets (blood platelets; 1 mg/body i.v., after 9 days, vehicle 37.4 ± 12.4): 64.7 ± 23.7 × 10^4 /μl
activity at 0.1 µg/mL ([1]; 10^-1 μg/ml): 177%
activity at 0.01 µg/mL ([1]; 10^-2 μg/ml): 194%
Number of Red Blood Cells (red blood cells; 0.1 mg/body i.v., after 6 days, vehicle 516 ± 6): 498 ± 18 × 10^4 /μl
Number of Red Blood Cells (red blood cells; 0.1 mg/body i.v., after 9 days, vehicle 506 ± 1): 538 ± 2 × 10^4 /μl
red-blood-cell-increasing effect (in words) (red blood cells; 0.1 mg/body, 9 days after administration): red-blood-cell-increasing effect was clearly found
Number of Red Blood Cells (red blood cells; 1 mg/body i.v., after 6 days, vehicle 516 ± 6): 569 ± 40 × 10^4 /μl
Number of Red Blood Cells (red blood cells; 1 mg/body i.v., after 9 days, vehicle 506 ± 1): 574 ± 37 × 10^4 /μl
